Experimental data from patent US20070015232A1, “Mitotic index assay” (DiscoveRx, Inc., priority 2005, published 2007).

How the values were obtained:
[1] = tested on: C2C12+EA-NLS/NRS+GR-PL cells; experiment: EFC mitotic index assay, C2C12+EA-NLS/NRS+GR-PL cells (Stanford GR cells); type: cell-based, mouse; conditions: for Avg luminescence readout / R1 luminescence readout / R3 luminescence readout / Ratio (Avg vs 0 conc): 24 hours, 30 min read
Experimental: (§1) In all experiments described, 20,000 cells/well were plated in a 96 well Corning clear bottom white plate in a total volume of 100 μL. The cells were treated for 24 hours with 5 μL of either the appropriate vehicle control or varying concentrations of the six compounds listed above. The next day, 100 μL of Tropix/ABI Gal screen cell lysis buffer/substrate mixture (24:1 ratio of component) was added to the cells/media and the plate was read on the Victor II luminescent plate reader at 30, 60 and 120 minutes after the lysis/substrate addition.
(§2) The initial test of the cell cycle arresting compounds was performed on a double stable cell line having both of the constructs expressing the EA-NLS/NRS and GR-PL. (PL is β-galactosidase enzyme donor fragment and EA is the enzyme acceptor fragment available from DiscoveRx, Fremont, CA.). The parental line, C2C12 is derived from mouse muscle cells. In the experiments in which EA-NLS/NRS and GR-PL are expressed in the C2C12 parental cell line, the constructs were generated by subcloning the human GR sequence into a MFG-based retroviral vector that had been molecularly altered in a lab at Stanford. An MFG vector is described in U.S. Pat. No. 6,544,771. The EA-NLS/NRS fragment was subcloned into a wzl-based retroviral vector again molecularly altered in a lab at Stanford. In the experiments performed using a CHO-K1 parental cell line background the EA-NLS/NRS was subcloned into the Kpn I and Xba I sites of pcDNA3.1 Hygro vector from Invitrogen (catalog #V870-20). The plasmid was introduced into the cells via FuGene6 (Roche) transfection reagent. Cells were selected in the presence of 250 μg/mL of Hygromycin and single cell clones isolated that expressed the EA-NLS/NRS. The human GR gene was cloned by PCR and subcloned into the Xho I and Bam HI sites of the DiscoveRx vector-pCMV-myc-PL (C3). The plasmid was introduced into the selected EA-NLS/NRS expressing clone isolated above by FuGene 6 transfection. Another round of screening in the presence of 300-500 μg/mL of G418 was used to select GR-PL transfected clones. Clonal selection was performed to finally identify the clone that was used in these studies. In the studies using the CHO-K1+cyto-EA and cJUN-PL, the same Invitrogen pcDNA3.1 Hygro vector was used to express EA. In this case, the EA fragment was subcloned into the Kpn I/Not I sites of pcDNA3.1 Hygro. The plasmid DNA was introduced as described above using FuGene6 reagent. Cells were selected in the presence of 250 μg/mL of hygromycin and clonal selection was performed. The c-Jun gene was generated by PCR using an existing template copy of the gene and then subcloned into the Xho I/Bam HI sites of pCMV-PL-myc (C3).

[2] = tested on: CHO-K1+cyto-EA cells transfected with cJUN-PL; experiment: EFC mitotic index assay, CHO-K1+cyto-EA cells transiently transfected with cJUN-PL; type: cell-based; conditions: for Avg luminescence readout / R1 luminescence readout / R3 luminescence readout / Ratio (Avg vs 0 conc): overnight
Experimental: as §2
To further test the concept of sequestering of one β-galactosidase enzyme fragment in the nucleus (in this case PL) while localizing the other component in the cytoplasm (in this case EA) the following experiment was carried out. […] The cyto-EA cells were transiently transfected with cJUN-PL plasmid DNA. Two days after the transfection, the cells were re-plated into a 96 well Corning white clear bottom multiwell plate at 20,000 cells/well. The cells were allowed to adhere overnight and the next day were treated with titrating concentrations of the six different cell cycle blocking compounds. The incubation was carried out overnight. The next day the media was removed from the cells and 100 μL of Tropix/ABI Gal screen cell lysis/substrate reagent was added to the cells.

[3] = tested on: CHO-K1+EA-NLS/NRS+GR-PL cells; experiment: EFC mitotic index assay, CHO-K1+EA-NLS/NRS+GR-PL cells, antibiotic selected pool (DX M19/GR pool); type: cell-based; conditions: 24 hours, 30 min read
Experimental: as §1, §2
In the next experiment, an antibiotic selected pool population of CHO-K1 cells that express EA-NLS/NRS and GR-PL were tested with the same six set of cell cycle blocking compounds. […] FIGS. 2a and 2b show the immunofluorescence localization of EA and GR-PL in that the blue DAPI nuclear staining can be seen to be concentrated in the nucleus, while the green fluorescein stain on the antibody (from Abcam PLC) to the glucocorticoid receptor is seen in the cytoplasm. […] Again, six tables are presented one for each of the six drugs tested.
This only occurs with compounds that block the cells in mitosis, allowing EA and ProLabel to complement.

[4] = tested on: Clone #69 CHO-K1 cells expressing EA-NLS/NRS and GR-PL; experiment: EFC assay in stable clone #69 (CHO-K1, EA-NLS/NRS and GR-PL) with or without RU486 pre-incubation; type: cell-based; conditions: for Avg luminescence readout / R1 luminescence readout / R3 luminescence readout / Ratio (Avg vs 0 conc): overnight, vehicle pre-incubation
Experimental: In the next experiment, a stable clone (clone #69) expressing both EA-NLS/NRS and GR-PL was isolated in a CHO-K1 parental background. […] 20,000 cells/well were plated in a 96 well white coming multi-well plate and allowed to adhere overnight. The next day, the cells were washed two times with serum free F12 media and 100 μL of serum free F12 media was added to the cells. The cells were then incubated in either vehicle (ethanol-1% final concentration) or 10 μM RU486 for one hour. To the cells, three different concentrations of dexamethasone (300, 100, 30 μM) (an agonist of GR), RU486 (30, 10, 3.33 μM), colchicine (1, 0.3, 0.1 μ/mL) or nocodazole (10, 3.33, 1.11 μg/mL) were added and the incubation went overnight at 37° C. with 5% CO2. The next day, the media was aspirated off and 100 μL of Tropix/ABI Gal screen cell lysis/substrate reagent was added to the cells. The plate was read on the Victor II reader at 30, 60 and 120 minutes.

[5] = High conc (nocodazole 10 μg/mL, colchicine 1 μ/mL, dexamethasone 300 μM, RU486 30 μM)
[6] = Low conc (nocodazole 1.11 μg/mL, colchicine 0.1 μ/mL, dexamethasone 30 μM, RU486 3.33 μM)
[7] = Med conc (nocodazole 3.33 μg/mL, colchicine 0.3 μ/mL, dexamethasone 100 μM, RU486 10 μM)

## COC(=O)Nc1nc2ccc(C(=O)c3cccs3)cc2[nH]1 [Nocodazole, nocodazole]
[1]; 0.3 μg/mL
  Avg luminescence readout: 4443
  R1 luminescence readout: 4243
  R3 luminescence readout: 4599
  Ratio (Avg vs 0 conc): 1
[1]; 1.0 μg/mL
  Avg luminescence readout: 6354
  R1 luminescence readout: 6029
  R3 luminescence readout: 6678
  Ratio (Avg vs 0 conc): 2
[1]; 3.3 μg/mL
  Avg luminescence readout: 6068
  R1 luminescence readout: 5669
  R3 luminescence readout: 6360
  Ratio (Avg vs 0 conc): 2
[1]; 10.0 μg/mL
  Avg luminescence readout: 5867
  R1 luminescence readout: 4401
  R3 luminescence readout: 5806
  Ratio (Avg vs 0 conc): 2
[1]; treatment 1-10 μg/mL
  increase in EFC activity: ~2 fold
[2]; 3.0 μg/mL
  Avg luminescence readout: 9887
  R1 luminescence readout: 9509
  R3 luminescence readout: 9751
  Ratio (Avg vs 0 conc): 1.4
[2]; 10.0 μg/mL
  Avg luminescence readout: 12728
  R1 luminescence readout: 11991
  R3 luminescence readout: 12371
  Ratio (Avg vs 0 conc): 1.8
[2]; 30.0 μg/mL
  Avg luminescence readout: 11870
  R1 luminescence readout: 10083
  R3 luminescence readout: 12287
  Ratio (Avg vs 0 conc): 1.6
[2]; 100.0 μg/mL
  Avg luminescence readout: 14898
  R1 luminescence readout: 13010
  R3 luminescence readout: 16060
  Ratio (Avg vs 0 conc): 2.1
[2]; overnight incubation
  increase in EFC activity: ~2.1 fold
[3]; 0.3 μg/mL
  Avg luminescence readout: 15528
  R1 luminescence readout: 15003
  R3 luminescence readout: 13585
  Ratio (Avg vs 0 conc): 2
[3]; 1.0 μg/mL
  Avg luminescence readout: 24777
  R1 luminescence readout: 23225
  R3 luminescence readout: 24165
  Ratio (Avg vs 0 conc): 3
[3]; 3.3 μg/mL
  Avg luminescence readout: 23766
  R1 luminescence readout: 24010
  R3 luminescence readout: 23172
  Ratio (Avg vs 0 conc): 3
[3]; 10.0 μg/mL
  Avg luminescence readout: 25709
  R1 luminescence readout: 22978
  R3 luminescence readout: 28584
  Ratio (Avg vs 0 conc): 3
[4]; 10 μM RU486 pre-incubation for one hour
  effect of incubation with RU486 on the EFC response (in words): not blocked by the incubation with RU486
[4]; [5]
  Avg luminescence readout: 11592
  R1 luminescence readout: 11504
  R3 luminescence readout: 11616
  Ratio (Avg vs 0 conc): 4
[4]; [6]
  Avg luminescence readout: 11575
  R1 luminescence readout: 11488
  R3 luminescence readout: 11606
  Ratio (Avg vs 0 conc): 4
[4]; [7]
  Avg luminescence readout: 11445
  R1 luminescence readout: 11364
  R3 luminescence readout: 11457
  Ratio (Avg vs 0 conc): 4

## CC#C[C@]1(O)CC[C@H]2[C@@H]3CCC4=CC(=O)CCC4=C3[C@@H](c3ccc(N(C)C)cc3)C[C@@]21C [RU486]
[4]; [5]
  Avg luminescence readout: 2882
  R1 luminescence readout: 3199
  R3 luminescence readout: 2657
  Ratio (Avg vs 0 conc): 1
[4]; [6]
  Avg luminescence readout: 2416
  R1 luminescence readout: 2692
  R3 luminescence readout: 2298
  Ratio (Avg vs 0 conc): 1
[4]; [7]
  Avg luminescence readout: 2402
  R1 luminescence readout: 2578
  R3 luminescence readout: 2249
  Ratio (Avg vs 0 conc): 1
